# According to paper PMC7206119, “RIP1 inhibition blocks inflammatory diseases but not tumor growth or metastases” (Cell Death and Differentiation, 2019):
# Tests used:
# Assay in all cases: biochemical
# Design in all cases: Thermo Fisher SelectScreen kinase panel: Z'-LYTE and Adapta activity, LanthaScreen binding
# MTOR = MTOR (Homo sapiens, UniProt P42345)
# Summary of the method: (§1)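 GNE684 profiled at 10 µM across 221 kinases with Z'-LYTE and Adapta activity and LanthaScreen binding formats. Also screened at 10 µM against 468 kinases in KINOMEscan scanMAX binding assay.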
# EPHB3 = EPHB3 (Homo sapiens, UniProt P54753)
# Summary of the method: as §1
# ROCK2 = ROCK2 (Homo sapiens, UniProt O75116)
# Summary of the method: as §1
# PKD1 = target: T1, PKD1 (Homo sapiens, UniProt Q15139)
# T1 construct: gene PRKD1
# Summary of the method: as §1
# PKC_alpha = target: T2, PKC_alpha (Homo sapiens, UniProt P17252)
# T2 construct: gene PRKCA
# Summary of the method: as §1
# BRK = target: T3, BRK (Homo sapiens, UniProt Q13882)
# T3 construct: gene PTK6
# T3 sequence (Q13882 whole entry): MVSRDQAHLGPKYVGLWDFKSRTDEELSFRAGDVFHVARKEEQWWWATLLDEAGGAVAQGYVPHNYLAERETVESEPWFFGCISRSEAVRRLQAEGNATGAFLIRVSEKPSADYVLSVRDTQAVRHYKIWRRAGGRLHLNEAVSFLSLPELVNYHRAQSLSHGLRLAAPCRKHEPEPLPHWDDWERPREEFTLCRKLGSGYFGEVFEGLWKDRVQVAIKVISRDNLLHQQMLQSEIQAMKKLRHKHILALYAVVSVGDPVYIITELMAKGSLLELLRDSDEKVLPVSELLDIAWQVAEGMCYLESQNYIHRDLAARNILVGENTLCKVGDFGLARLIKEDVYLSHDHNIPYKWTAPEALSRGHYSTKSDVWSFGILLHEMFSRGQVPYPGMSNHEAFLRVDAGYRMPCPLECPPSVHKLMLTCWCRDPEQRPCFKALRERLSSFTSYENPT
# Summary of the method: as §1
# JNK3 = target: T4, JNK3 (Homo sapiens, UniProt P53779)
# T4 construct: gene MAPK10
# Summary of the method: as §1
# WEE1 = WEE1 (Homo sapiens, UniProt P30291)
# Sequence of WEE1 (P30291 whole entry): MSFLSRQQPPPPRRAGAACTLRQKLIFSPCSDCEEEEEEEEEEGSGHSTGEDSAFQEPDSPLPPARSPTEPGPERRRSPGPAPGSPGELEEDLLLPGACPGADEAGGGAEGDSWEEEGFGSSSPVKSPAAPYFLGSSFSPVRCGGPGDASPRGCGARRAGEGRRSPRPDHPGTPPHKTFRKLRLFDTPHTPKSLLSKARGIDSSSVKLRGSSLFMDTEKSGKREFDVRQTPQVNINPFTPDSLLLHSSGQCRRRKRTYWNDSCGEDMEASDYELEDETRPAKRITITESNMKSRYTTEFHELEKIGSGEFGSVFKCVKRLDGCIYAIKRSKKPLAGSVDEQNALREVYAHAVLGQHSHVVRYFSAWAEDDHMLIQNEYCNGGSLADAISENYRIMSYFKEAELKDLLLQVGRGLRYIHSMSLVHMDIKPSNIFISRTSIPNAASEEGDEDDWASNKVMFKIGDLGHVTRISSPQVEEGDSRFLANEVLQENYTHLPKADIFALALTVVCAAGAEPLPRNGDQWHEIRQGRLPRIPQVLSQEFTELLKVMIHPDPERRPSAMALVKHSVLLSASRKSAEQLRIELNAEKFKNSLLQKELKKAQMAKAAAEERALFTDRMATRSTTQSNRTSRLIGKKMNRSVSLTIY
# Summary of the method: as §1
# PKA = target: T5, PKA (Homo sapiens, UniProt P17612)
# T5 construct: gene PRKACA
# Summary of the method: as §1
# PLK1 = PLK1 (Homo sapiens, UniProt P53350)
# Summary of the method: as §1
# BTK = BTK (Homo sapiens, UniProt Q06187)
# Sequence of BTK (Q06187 whole entry): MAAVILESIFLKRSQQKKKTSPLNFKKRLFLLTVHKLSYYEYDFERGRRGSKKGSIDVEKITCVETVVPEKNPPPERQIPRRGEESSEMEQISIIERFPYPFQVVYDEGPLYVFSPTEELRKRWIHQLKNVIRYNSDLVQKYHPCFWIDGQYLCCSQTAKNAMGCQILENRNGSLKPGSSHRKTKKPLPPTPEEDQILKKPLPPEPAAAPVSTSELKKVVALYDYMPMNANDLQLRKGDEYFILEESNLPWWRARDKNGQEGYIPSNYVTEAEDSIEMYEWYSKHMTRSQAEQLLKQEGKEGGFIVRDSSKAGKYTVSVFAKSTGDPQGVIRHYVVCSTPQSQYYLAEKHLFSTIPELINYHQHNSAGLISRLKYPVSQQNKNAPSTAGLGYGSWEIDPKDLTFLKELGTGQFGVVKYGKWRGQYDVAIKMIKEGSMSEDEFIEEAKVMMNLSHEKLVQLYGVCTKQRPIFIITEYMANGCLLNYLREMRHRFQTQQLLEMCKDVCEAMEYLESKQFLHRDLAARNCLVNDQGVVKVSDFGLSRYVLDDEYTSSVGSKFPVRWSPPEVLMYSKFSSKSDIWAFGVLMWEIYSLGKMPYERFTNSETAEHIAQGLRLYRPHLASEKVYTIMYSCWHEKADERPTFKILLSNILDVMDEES
# Summary of the method: as §1
# TSSK1 = target: T6, TSSK1 (Homo sapiens, UniProt Q9BXA7)
# T6 construct: gene TSSK1B
# T6 sequence (Q9BXA7 whole entry): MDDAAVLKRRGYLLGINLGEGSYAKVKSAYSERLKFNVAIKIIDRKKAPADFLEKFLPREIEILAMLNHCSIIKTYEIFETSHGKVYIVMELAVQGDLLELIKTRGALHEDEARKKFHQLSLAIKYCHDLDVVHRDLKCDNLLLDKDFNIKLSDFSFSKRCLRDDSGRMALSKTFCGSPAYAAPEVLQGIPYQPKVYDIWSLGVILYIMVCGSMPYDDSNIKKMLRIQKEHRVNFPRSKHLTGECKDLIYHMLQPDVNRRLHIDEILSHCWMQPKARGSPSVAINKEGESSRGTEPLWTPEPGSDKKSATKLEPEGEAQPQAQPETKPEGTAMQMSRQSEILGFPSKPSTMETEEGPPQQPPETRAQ
# Summary of the method: as §1
# RIPK3 = RIPK3 (Homo sapiens, UniProt Q9Y572)
# Summary of the method: as §1
# HCK = HCK (Homo sapiens, UniProt P08631)
# Summary of the method: as §1
# RET = RET (Homo sapiens, UniProt P07949)
# Summary of the method: as §1
# EPHA1 = EPHA1 (Homo sapiens, UniProt P21709)
# Summary of the method: as §1
# TYK2 = TYK2 (Homo sapiens, UniProt P29597)
# Sequence of TYK2 (P29597 whole entry): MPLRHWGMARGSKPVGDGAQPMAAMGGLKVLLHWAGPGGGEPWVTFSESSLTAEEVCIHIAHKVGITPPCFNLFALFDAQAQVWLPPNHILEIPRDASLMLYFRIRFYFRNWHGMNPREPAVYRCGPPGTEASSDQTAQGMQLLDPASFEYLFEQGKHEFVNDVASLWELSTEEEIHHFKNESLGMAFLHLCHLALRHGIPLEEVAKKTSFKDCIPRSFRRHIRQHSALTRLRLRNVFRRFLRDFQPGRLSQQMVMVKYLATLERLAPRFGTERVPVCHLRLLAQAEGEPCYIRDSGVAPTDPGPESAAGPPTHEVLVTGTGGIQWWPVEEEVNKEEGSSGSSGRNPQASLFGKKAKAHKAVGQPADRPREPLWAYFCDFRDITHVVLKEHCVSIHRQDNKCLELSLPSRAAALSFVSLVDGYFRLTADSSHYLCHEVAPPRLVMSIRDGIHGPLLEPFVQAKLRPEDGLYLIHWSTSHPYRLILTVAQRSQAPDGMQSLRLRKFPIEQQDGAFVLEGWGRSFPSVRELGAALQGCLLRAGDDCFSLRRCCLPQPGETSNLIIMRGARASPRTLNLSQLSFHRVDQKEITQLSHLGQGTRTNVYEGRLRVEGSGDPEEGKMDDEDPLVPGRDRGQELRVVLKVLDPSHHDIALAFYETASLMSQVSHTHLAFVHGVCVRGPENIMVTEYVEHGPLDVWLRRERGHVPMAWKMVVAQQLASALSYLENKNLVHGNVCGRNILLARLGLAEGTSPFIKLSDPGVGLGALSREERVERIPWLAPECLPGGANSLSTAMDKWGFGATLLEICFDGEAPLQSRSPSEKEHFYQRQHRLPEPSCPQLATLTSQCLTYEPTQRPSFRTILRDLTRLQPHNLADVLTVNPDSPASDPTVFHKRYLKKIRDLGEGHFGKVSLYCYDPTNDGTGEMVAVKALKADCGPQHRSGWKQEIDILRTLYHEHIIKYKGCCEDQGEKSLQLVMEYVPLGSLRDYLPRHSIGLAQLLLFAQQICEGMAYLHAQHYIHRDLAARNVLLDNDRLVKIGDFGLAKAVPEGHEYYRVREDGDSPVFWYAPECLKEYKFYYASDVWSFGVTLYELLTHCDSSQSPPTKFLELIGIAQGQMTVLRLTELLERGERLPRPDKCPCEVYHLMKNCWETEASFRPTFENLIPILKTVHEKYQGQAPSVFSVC
# Summary of the method: as §1
# HIPK1 = HIPK1 (Homo sapiens, UniProt Q86Z02)
# Summary of the method: as §1
# p38-beta = target: T7, p38-beta (Homo sapiens, UniProt Q15759)
# T7 construct: gene MAPK11
# T7 sequence (Q15759 whole entry): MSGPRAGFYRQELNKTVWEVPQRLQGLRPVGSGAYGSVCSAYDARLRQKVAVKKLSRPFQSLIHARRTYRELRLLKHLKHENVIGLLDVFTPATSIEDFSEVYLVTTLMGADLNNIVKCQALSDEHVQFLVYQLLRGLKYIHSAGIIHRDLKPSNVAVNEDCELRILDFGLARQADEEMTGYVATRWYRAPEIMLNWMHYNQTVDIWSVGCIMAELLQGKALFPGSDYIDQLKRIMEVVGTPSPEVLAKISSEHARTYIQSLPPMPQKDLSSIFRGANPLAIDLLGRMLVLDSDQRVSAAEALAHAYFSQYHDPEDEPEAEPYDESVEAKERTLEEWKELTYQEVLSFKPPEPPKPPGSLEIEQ
# Summary of the method: as §1
# RSK2 = target: T8, RSK2 (Homo sapiens, UniProt P51812)
# T8 construct: gene RPS6KA3
# Summary of the method: as §1
# TIE2 = target: T9, TIE2 (Homo sapiens, UniProt Q02763)
# T9 construct: gene TEK
# Summary of the method: as §1
# STK16 = STK16 (Homo sapiens, UniProt O75716)
# Sequence of STK16 (O75716 whole entry): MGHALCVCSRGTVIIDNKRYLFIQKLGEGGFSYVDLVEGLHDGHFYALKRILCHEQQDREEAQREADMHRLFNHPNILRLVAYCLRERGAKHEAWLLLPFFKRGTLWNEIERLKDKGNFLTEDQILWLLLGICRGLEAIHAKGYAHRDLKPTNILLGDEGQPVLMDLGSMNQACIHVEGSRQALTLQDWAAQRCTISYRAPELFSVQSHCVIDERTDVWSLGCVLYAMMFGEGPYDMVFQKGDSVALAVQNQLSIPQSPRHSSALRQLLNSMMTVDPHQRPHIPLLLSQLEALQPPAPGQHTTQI
# Summary of the method: as §1
# HIPK4 = HIPK4 (Homo sapiens, UniProt Q8NE63)
# Sequence of HIPK4 (Q8NE63 whole entry): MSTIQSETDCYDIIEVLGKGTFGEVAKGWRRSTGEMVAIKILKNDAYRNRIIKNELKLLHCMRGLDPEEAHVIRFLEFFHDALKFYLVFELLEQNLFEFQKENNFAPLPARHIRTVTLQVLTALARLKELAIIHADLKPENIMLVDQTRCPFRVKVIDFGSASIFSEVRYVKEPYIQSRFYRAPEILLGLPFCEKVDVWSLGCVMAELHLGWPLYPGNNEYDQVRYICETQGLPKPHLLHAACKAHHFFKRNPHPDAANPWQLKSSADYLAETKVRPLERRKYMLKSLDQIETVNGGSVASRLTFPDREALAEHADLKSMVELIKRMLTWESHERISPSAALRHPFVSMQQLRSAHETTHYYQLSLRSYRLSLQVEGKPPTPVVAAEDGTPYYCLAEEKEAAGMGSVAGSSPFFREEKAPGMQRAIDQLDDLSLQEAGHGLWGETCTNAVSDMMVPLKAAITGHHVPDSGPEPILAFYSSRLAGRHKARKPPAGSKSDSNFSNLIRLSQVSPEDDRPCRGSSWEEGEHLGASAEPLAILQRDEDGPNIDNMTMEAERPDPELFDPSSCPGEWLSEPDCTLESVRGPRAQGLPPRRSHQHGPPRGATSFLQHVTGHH
# Summary of the method: as §1
compound,measurement,setting,value
"COc1cc2c(cn1)N(C)C(=O)[C@@H](NC(=O)c1nc3n(n1)[C@H](c1ccccc1)CC3)CC2 [GNE684, (S)-N-((S)-7-methoxy-1-methyl-2-oxo-2,3,4,5-tetrahydro-1H-pyrido[3,4-b]azepin-3-yl)-5-phenyl-6,7-dihydro-5H-pyrrolo[1,2-b][1,2,4]triazole-2-carboxamide]",inhibition at 10 µM,MTOR,2%
same,inhibition at 10 µM,EPHB3,3.5%
same,inhibition at 10 µM,ROCK2,1.5%
same,inhibition at 10 µM,PKD1,3%
same,inhibition at 10 µM,PKC_alpha,3%
same,inhibition at 10 µM,BRK,-1%
same,inhibition at 10 µM,JNK3,3%
same,inhibition at 10 µM,WEE1,0.5%
same,inhibition at 10 µM,PKA,1%
same,inhibition at 10 µM,PLK1,4%
same,inhibition at 10 µM,BTK,-3.5%
same,inhibition at 10 µM,TSSK1,6%
same,inhibition at 10 µM,RIPK3,-3%
same,inhibition at 10 µM,HCK,5%
same,inhibition at 10 µM,RET,4%
same,inhibition at 10 µM,EPHA1,9.5%
same,inhibition at 10 µM,TYK2,3.5%
same,inhibition at 10 µM,HIPK1,0%
same,inhibition at 10 µM,p38-beta,4.5%
same,inhibition at 10 µM,RSK2,4%
same,inhibition at 10 µM,TIE2,-4.5%
same,inhibition at 10 µM,STK16,-2%
same,inhibition at 10 µM,HIPK4,11.5%
